Assay: Human HepG2 cell viability assay in 384 well format
Assay type: toxicity, cell-based
Parameters: dose 125 nL, time 70.5 hour; cytotoxicity at 70.5 h: concentration not given beside the values
Conditions: HepG2 cells, read-out: Inhibition

| Structure (SMILES) | cytotoxicity at 70.5 h [%] |
| --- | --- |
| Cn1nc2c(cc1=O)CN(c1ncnc3sccc13)CC2 | 5.63 |
| CCn1nc2c(cc1=O)CN(c1ncnc3sccc13)CC2 | -11.4 |
| Cc1nc(CNc2cccc(Cl)c2Cl)cs1 | 16.5 |
| CC(C)(C)CCCC(=O)Nc1ccnn1C1CCS(=O)(=O)C1 (stereo not given) | -6.88 |
| Cc1c(COC(C)C)cccc1NC(=O)N1CCCC(CO)C1 (stereo not given) | -3.17 |
| Cc1nc(C(=O)NS(=O)(=O)c2cccc(C#N)c2)cs1 | 17.6 |
| COc1cc(CNc2nc(N3CCOCC3)ns2)cc(OC)c1OC | -5.63 |
| Cc1csc(N2CCCN(c3cc(C)nc(C)c3C#N)CC2)n1 | -4 |
| Cc1cc(N2CCCC2)c(C#N)c(C)n1 | 17.6 |
| Cc1ccccc1C(NC(=O)NCC1(CO)CC1)C1CC1 (stereo not given) | -1.18 |
| O=C(c1ccon1)N1CCN(c2ccncc2Cl)CC1 | -4.94 |
| Cc1cccc(CCC(=O)Nc2ccnn2C2CCS(=O)(=O)C2)c1 (stereo not given) | 17 |
| COc1c(Cl)cccc1NCc1csc(C)n1 | -8.65 |
| CN(CCCNC(=O)C1CCc2cn[nH]c2C1)c1ccccc1 (stereo not given) | -4.99 |
| CCOC(C)c1nc(CNc2cccc(Cl)c2OC)cs1 (stereo not given) | 8.97 |
| Cc1csc(CNC(=O)NCC(C)Cn2nc(C)cc2C)n1 (stereo not given) | -5.06 |
| O=C(Cc1cccnc1)NCCS(=O)(=O)c1ccccc1F | -7.32 |
| CCC(NCCn1cc(C)cn1)C(=O)Nc1cc(C)on1 (stereo not given) | 10.8 |
| CSCCC(NC(N)=O)C(=O)NCc1cnn(-c2ccccc2)c1 (stereo not given) | 8.76 |
| CCn1cnnc1CNC(=O)N1CCOC(c2ccc(F)cc2)C1 (stereo not given) | -3.32 |
| CC(Cc1cccc(F)c1)C(=O)NS(=O)(=O)c1cnn(C)c1 (stereo not given) | -1.2 |
| O=C(CC1CCCC1)NCCNCc1cccc2c1OCCO2 | 4.62 |
| O=C(Nc1ccncc1)NC1CCN(c2ccccc2OC(F)F)C1 (stereo not given) | 1.15 |
| COC(CNC(=O)c1ccc[nH]1)c1cccc(Cl)c1 (stereo not given) | 10.5 |

| Structure (SMILES) | cytotoxicity at 70.5 h [%] |
| --- | --- |
| CCN(Cc1ccoc1)c1ncc(S(N)(=O)=O)s1 | -7.46 |
| Cc1cc(CNCC2(O)CCOCC2)ccc1Br | 4.13 |
| O=C(Nc1ccccn1)NC1CCN(c2ccccc2OC(F)F)C1 (stereo not given) | -2.08 |
| COCCN1CCC(NC(=O)C/C=C/c2ccc(C(C)C)cc2)CC1 | 2.87 |
| CC(C)c1ccc(/C=C/CC(=O)NC2CCN(C(N)=O)CC2)cc1 | -9.67 |
| CC(C(=O)NC1(C#N)CCCCC1)N1CCc2c(ncn2C2CC2)C1 (stereo not given) | -8.12 |
| CCc1nc(CCNc2ncccc2C#N)sc1C | -8.12 |
| Cc1cc(NC(=O)C(C)NCCn2cccn2)no1 (stereo not given) | -0.681 |
| O=C(NCCNCc1cccc2c1OCCCO2)C1CCCC1 | 14.5 |
| COCCN1CCC(CNC(=O)c2ccnc(-n3ccnc3)c2)CC1 | -0.309 |
| CN(CCOc1ccc(F)cc1)S(=O)(=O)c1cnn(C)c1 | -8.4 |
| CC(NC(=O)NCCCn1ccnc1)c1nncn1C (stereo not given) | -2.89 |
| NC(=O)C1CCN(C(=O)NC2CCc3cc(Cl)ccc32)CC1 (stereo not given) | -7.29 |
| CC1CCN(C(=O)c2occc2COc2cccc(C#N)c2)CC1 | 8.42 |
| COCCN(Cc1ccc(F)cc1Cl)C(=O)c1ccccn1 | 9.84 |
| CCCc1n[nH]c(C2CN(C(=O)Cc3ccc(C)nc3)CCO2)n1 (stereo not given) | -1.25 |
| CN(Cc1cnn(C)c1)C1CCCN(Cc2noc(C3CC3)n2)C1 (stereo not given) | 50.1 |
| CC1(NC(=O)Cc2csc(NC(=O)c3ccccc3)n2)CCS(=O)(=O)C1 (stereo not given) | -71.2 |
| CCSc1cc(C(=O)NCc2ccc(C(=O)NC)cc2)ccn1 | -81.1 |
| O=C(NCCCn1cccn1)C1(c2cccc(Cl)c2)CC1 | 55.5 |
| CC(CN1CCCC1=O)NC(=O)c1ccc(-c2ccco2)[nH]c1=O (stereo not given) | -96.6 |
| Cc1ncc2c(n1)CN(Cc1nc(C)c(C)o1)CC2 | -100 |
| COCCOc1nc(-c2ccccc2Cl)no1 | -78.8 |
| CC1(NC(=O)Cc2csc(-c3ccccc3Cl)n2)CCS(=O)(=O)C1 (stereo not given) | -88.9 |

| Structure (SMILES) | cytotoxicity at 70.5 h [%] |
| --- | --- |
| Cc1cc(NC2CCc3ncnn3C2)n2ncnc2n1 (stereo not given) | -106 |
| Cc1n[nH]c(C2CN(CC(=O)NCCc3ccccc3C)CCO2)n1 (stereo not given) | -109 |
| Cc1n[nH]c(C2CN(CC(=O)NCc3cccs3)CCO2)n1 (stereo not given) | -86.1 |
| O=C(NCc1ccco1)N1CCC(n2ccc(C(F)(F)F)n2)CC1 | -82.9 |
| CCNC(=O)N1CCC(n2ccc(C(F)(F)F)n2)CC1 | 38.9 |
| COCC(C)NC(=O)NCCCc1cc(N)n(-c2ccccc2)n1 (stereo not given) | -108 |
| Cc1n[nH]c(C2CN(CC(=O)NCCc3ccccc3)CCO2)n1 (stereo not given) | 9 |
| CC(OCC(F)(F)F)C(=O)N1CCCC1 (stereo not given) | -61.3 |
| CCOc1cc(CN(C)CC(C)(C)O)ccc1OC(F)F | 4.76 |
| O=C(c1cc(Cl)c2c(c1)OCO2)N1CCN(c2ncccn2)CC1 | 30.1 |
| O=S(=O)(NCC1COc2ccccc2C1)N1CCOCC1 (stereo not given) | -3.96 |
| O=C(c1ccc(O)c(Cl)c1)N1CCN(c2nccs2)CC1 | -9.18 |
| Cc1ccc(C(=O)NC2CCN(Cc3noc(C(C)(C)C)n3)CC2)s1 | -14.3 |
| Cc1ccc(C(=O)NC2CCN(Cc3noc(C(C)C)n3)CC2)s1 | -8.2 |
| CCc1noc(CN2CCC(NC(=O)c3ccc(C)s3)CC2)n1 | -9.12 |
| Cc1cc(CN2CCN(C(=O)C(C(C)C)n3cncn3)CC2)on1 (stereo not given) | -10.4 |
| Cc1ccc(-n2nnc(CC(=O)N3CCN(C(C)C)CC3)c2C)cc1 | -10.5 |
| Cc1cccc(C)c1OCC(O)CNCc1c(C)nn(C)c1N(C)C (stereo not given) | -4.45 |
| Cc1c(CC(=O)N2CCN(C(C)C)CC2)nnn1-c1ccccc1 | 23.6 |
| Cc1cccc(OCC(O)CNCc2c(C)nn(C)c2N(C)C)c1 (stereo not given) | -8.26 |
| CC(C)C(C(=O)N1CCN(Cc2ccccn2)CC1)n1cncn1 (stereo not given) | -10.2 |
| Cc1oc(-c2ccsc2)nc1CC(=O)NCCCS(C)(=O)=O | 15.4 |
| Cc1oc(-c2ccsc2)nc1CC(=O)NCC(=O)Nc1cn[nH]c1 | -13 |
| Cc1cccc(-c2nc(CN3CC(n4nc(C)cc4C)C3)no2)c1 | -4.09 |

| Structure (SMILES) | cytotoxicity at 70.5 h [%] |
| --- | --- |
| CN(Cc1noc(C(C)(C)C)n1)Cc1ccccc1N1CCCC1 | -8.02 |
| Cn1nc2c(cc1=O)CN(Cc1nc(N)c3ccccc3n1)CC2 | 7.46 |
| CCNC(=O)CCCC(=O)N1CCc2cc(Cl)cc(Cl)c2C1 | -4.11 |
| O=C(CCc1ccncc1)N1CCc2cc(Cl)cc(Cl)c2C1 | 17.4 |
| Cc1noc(CN(Cc2cccs2)C2CC2)n1 | 17.3 |
| COCCc1noc(CN2CCCC2c2noc(C(C)C)n2)n1 (stereo not given) | 17.1 |
| Cc1nn(C)c(N(C)C)c1CNCC(O)COc1cccc(F)c1 (stereo not given) | -11.4 |
| Cc1cnn(CCNCC(O)c2ccc(F)c(F)c2)c1 (stereo not given) | 3.17 |
| Cc1cc(NC(=O)c2ccccc2Br)n(C)n1 | 2.28 |
| COC(=O)c1cc(OC)c(OC)cc1NCc1c(C)noc1C | -2.42 |
| O=c1[nH]ncc(NCCOc2ccc3c(c2)OCO3)c1Cl | -8.71 |
| Cc1cc(NC(=O)c2ccc(Br)cc2F)n(C)n1 | 12.5 |
| O=c1[nH]ncc(NCCOc2ccc3c(c2)CCC3)c1Cl | -11.7 |
| CN(CC(=O)Nc1cc(CC2CCCCC2)n[nH]1)S(C)(=O)=O | -4.16 |
| c1ccc(-c2cc(CN3CCc4cncnc4C3)on2)cc1 | -4.72 |
| Cc1ccc(-c2cc(CN3CCc4cnc(C)nc4C3)on2)cc1 | -10.1 |
| Cc1cnn(CCNCc2ccc(S(C)(=O)=O)cc2)c1 | -4.97 |
| Cc1cnn(CCNCC(O)c2cccc(Br)c2)c1 (stereo not given) | -8.97 |
| Cc1c(Br)cccc1S(=O)(=O)NCc1ccnn1C | -3.27 |
| COCCCNS(=O)(=O)c1cc(C)sc1C | -6.05 |
| Cc1ccc(CN(C)C(=O)c2cccc(NC(N)=O)c2)o1 | -11.5 |
| COc1ccc(C(C)NC(=O)Nc2nccs2)cc1OC (stereo not given) | -8.99 |
| Cc1ccc(CN(C(=O)c2cccc(NC(N)=O)c2)C2CC2)o1 | -10.5 |
| CC(C)N(C)C(=O)c1ccc(Cl)c(NC(=O)C2CCC2)c1 | 19.4 |

| Structure (SMILES) | cytotoxicity at 70.5 h [%] |
| --- | --- |
| CNC(=O)NC(=O)CCSc1ccccc1C | -0.594 |
| CN1CCC(NC(=O)Cc2csc(C(C)(C)C)n2)CC1 | -10.5 |
| CC(C)N(C)C(=O)c1ccc(Cl)c(NC(=O)COCC2CC2)c1 | -6.46 |
| O=C(Nc1cc(-c2ccccc2)on1)N1CC[C@H](O)C1 | -1.65 |
| CCc1noc(CC)c1CC(=O)N1CCN(C(=O)C2CCCC2)CC1 | -9.43 |
| CCc1noc(CC)c1CC(=O)N1CCN(C(C#N)C(C)C)CC1 (stereo not given) | -8.63 |
| NC(=O)CCSCc1cc(Br)cc2cccnc12 | 10.9 |
| CCCNC(=O)C(C)Nc1ccc(COCC)cc1 (stereo not given) | -0.943 |
| Cc1nc(CNC(=O)Nc2ccc3c(ccn3CCN(C)C)c2)no1 | -2.87 |
| NC(=O)NC(=O)CCSc1ccccc1Cl | -17.5 |
| CC(SCCS(C)(=O)=O)c1nc(Cc2ccccc2)no1 (stereo not given) | -7.83 |
| CCc1noc(CC)c1CC(=O)N1CCCC(N2CCCCC2)C1 (stereo not given) | -8.14 |
| CCS(=O)(=O)c1nccn1-c1cccc(F)c1 | -9.95 |
| CCN(CCc1nccs1)C(=O)c1ccco1 | -7.04 |
| CN(CCCc1ccc(C(F)(F)F)cc1)Cc1nccn1C | -12 |
| CCC1CN(CC(=O)NCC(C)C)CCO1 (stereo not given) | -10.6 |
| CCOCCN1CCc2cncnc2C1 | 27.9 |
| Cc1noc(C2CCCN(CC(=O)N3CCNC(=O)C3)C2)n1 (stereo not given) | -4.79 |
| CCc1noc(CCCC(=O)Nc2cc(C(F)(F)F)c[nH]c2=O)n1 | 0.169 |
| CC(C)c1noc(CCC(=O)Nc2cc(C(F)(F)F)c[nH]c2=O)n1 | -3.33 |
| Cn1cc(C(=O)N(Cc2ccco2)Cc2cccs2)ccc1=O | -8.8 |
| COc1ccc(CC(=O)N2CCC(c3n[nH]c(C4CC4)n3)CC2)cc1 | 2.82 |
| COc1ccc(C(=O)NCCCNc2ncccn2)c(OC)c1 | -7.46 |
| NC1(c2nc(C(F)(F)F)cc(=O)[nH]2)CCCCC1 | 0.93 |

Reference: ChEMBL document CHEMBL3507680, “University of Dundee, Gates Library screen for HepG2 cell viability”
